# Measurements from patent US12410174B1, “Small molecular inhibitors of sting signaling compositions and methods of use” (TYERELL IMMUNOTHERAPEUTICS INC, priority 2020, dated 2025).
# “Also recorded” adds a separate entry of the source.
# Columns and labels:
# STING signaling [1] = test: Luciferase live cell assay, type I IFN promoter in hTERT-pIFNβ-Glu cells after ISD transfection; type: cell-based, human; details: for inhibitory activity of the type I IFN promoter (luciferase induction): hTERT-pIFNβ-Glu cells, 50 μM or 25 μM, in response to ISD; for criteria to inhibit STING dependent signaling (type I IFN promoter in human cells): test of the 25 novel analogs
# Protocol: Inhibition of IFNβ expression was measured by Luciferase induction at 24 hours after transfection of ISD, Mock is shown (210), ISD treatment only (220) was used as a control, according to an embodiment of the invention;
# Example 1: Identification of small molecule antagonists of STING. In the presence of cytosolic DNA species, STING becomes activated to drive the transcription of cytokines such as type I IFN. Compounds binding to STING via TSA were subsequently examined for their ability to prevent cytosolic DNA species from activating the type I interferon (IFN) promoter, using a live cell assay. This assay comprised immortalized human fibroblasts that were stably transfected with the type I IFN promoter driving luciferase as well as the CMV promoter driving SEAP (hTERT-pIFNβ-Glu). The live cell assay has previously been disclosed in PCT/JS2019/025380 entitled IFN-βETA REPORTER SYSTEM FOR IMMORTALIZED PRIMARY CELLS inventor Glen N. Barber, which was filed Apr. 2, 2018 and published as WO2019195285, and which is herein incorporated by reference in its entirety and for all purposes. The ability of the small molecules to prevent activation of the type I IFN promoter and the transcription of luciferase, but not SEAP in response to cytosolic DNA species was assessed. The activation of STING, typically by CDNs, in turn activates the transcription factors NF-κB and IRF3, both of which are required to induce the transcriptional stimulation of the Type I IFN promoter, but not the CMV promoter as IRF3 and NF-kB transcription factor binding sites are not contained in the CMV promoter. The assay identified the small molecule Compound Y1 in the first screen (HTS), where the level of luciferase was not able to activate the type I IFN promoter or induce the expression of luciferase (see Table I).
# Example 4: hTERT-BJ1 Telomerase Fibroblasts (hTERT) were originally purchased from Clontech and were cultured in 4:1 ratio of DMEM:Medium 199 supplement with 10% FBS, 4 mM L-Glutamine and 1 mM sodium pyruvate at 37° C. in a 5% CO2-humidified atmosphere. hTERT-BJ1 Telomerase Fibroblasts stably expressing the luciferase gene under the control of the interferon-beta promoter and SEAP gene under control of the CMV promoter) (hTERT-pIFNβ-Glu) were generated by the Barber laboratory.
# Example 7: Luciferase assay: hTERT-BJ1 Telomerase Fibroblasts stably expressing the luciferase gene under the control of the interferon-beta promoter and SEAP gene under control of the CMV promoter) (hTERT-pIFNβ-Glu) were generated by the Barber laboratory. Luciferase assay was performed using Secrete-Pair Dual Luminescence Assay Kit from GeneCopoeia following the manufacturer's protocol.
# STING signaling [2] = test: qPCR of IFNβ1 / Cxcl10 in normal hTERT cells after ISD transfection; type: cell-based, human; details: normal hTERT cells stimulated with ISD; 50 μM, 25 μM or 5 μM
# Protocol: (§1) Example 11: qPCR total RNA were reverse-transcribed using M-MLV Reverse Transcriptase (Promega). Real-time PCR was performed using Taqman Gene Expression Assay (Applied Biosystems) for innate immune genes and inflammatory cytokines.
# STING signaling [3] = test: qPCR of Cxcl10 / Cxcl5 in MEF cells after ISD transfection; type: cell-based, murine
# Protocol: MEFs were obtained from E13.5 embryos by a standard procedure. Bone Marrow Derived Macro-phages (BMDM) were isolated from hind-limb femurs of 8-10 weeks old WT and Trex1 KO (TKO) mice. The hematopoietic cells from the bone marrow were cultured in complete DMEM (Invitrogen) including 10 ng/ml of Mouse Recombinant Colony-Stimulating Factor (M-CSF, R&D Systems) for 10 to 14 days.
# as §1
# STING signaling [4] = test: Western blot of STING, TBK1 and IRF3 phosphorylation in MEF cells; type: cell-based, murine; details: cytosolic DNA
# Protocol: Example 8: Immunoblot analysis: Equal amounts of proteins were resolved on sodium dodecyl sulfate (SDS)-Polyacrylamide gels and then transferred to polyvinylidene fluoride (PVDF) membranes (Millipore). After blocking with 5% Blocking Reagent, membranes were incubated with various primary antibodies (and appropriate secondary antibodies). The image was resolved using an enhanced chemiluminescence system ECL (Thermo Scientific) and detected by autoradiography (Kodak). Antibodies: rabbit polyclonal antibody against STING was developed in our laboratory as described previously in Ishikawa et al, 2008; other antibodies were obtained from following sources: β-actin (Sigma Aldrich), p-IRF3 (Cell Signaling), IRF3 (Santa Cruz Biotechnology), p-p65 (Cell Signaling), p65 (Cell Signaling), p-TBK1 (Cell Signaling), TBK1 (Abcam), cGAS (Cell Signaling).
# STING signaling [5] = test: Confocal analysis of STING trafficking and IRF3 translocation in hTERT cells; type: cell-based, human; details: 6 hours after ISD transfection
# Protocol: FIG. 2E are photographs showing confocal analysis of STING trafficking using anti-Sting performed at 6 hours after ISD transfection with Y1+220/without 220, Mock is shown (210), ISD treatment only (220) was used as control, treatment same as in FIG. 2A, according to an embodiment of the invention;
# Example 10: Immunofluorescence Microscopy: Cells were cultured and treated in their appropriate media on Lab-Tek II chamber slides. Cell were fixed with 4% paraformaldehyde for 15 minutes in at 37° C. and permeabilized with 0.05% Triton X-100 for 5 minutes at room temperature. Immunostaining was performed with rabbit-anti-STING polyclonal, rabbit-anti-IRF3 (Santa Cruz Biotechnology) or rabbit-anti-p65 (Cell Signaling) followed by fluorescence conjugated secondary antibodies (FITC-goat-anti-rabbit) (Invitrogen).
# TREX1-deficient mice = test: Treatment of TREX1 knockout (TKO) mice: survival and heart histopathology; type: in vivo, mouse
# Protocol: Example 12: Mouse Treatment: Trex1 Hetero knockout mice (Trex1^+/−) were generated by crossing the hetero mice. Mouse genotypes from tail biopsies were determined using Real Time PCR with specific probes designed for each gene by commercial vendor (Transnetyx). Trex1 KO (TKO) mice (4-5 weeks old) were intraperitoneally injected with 25 μg Z811 per mouse in 200 μL 1% DMSO in PBS. The mice were injected three times a week for 5 months. The survival rates were evaluated.
# Example 13: Histopathology. Mice are sacrificed and the heart tissues were fixed in 10% formalin for 48 hours.
Compound,inhibitory activity of the type I IFN promoter (luciferase induction) (STING signaling [1]),criteria to inhibit STING dependent signaling (type I IFN promoter in human cells) (STING signaling [1]),production of STING-inducible cytokine Cxcl10 (qPCR) (STING signaling [2]),Cxcl10 production in response to ISD (qPCR) (STING signaling [3]),"phosphorylation of TBK1, IRF3 and STING (Western blot) (STING signaling [4])",IRF3 translocation (confocal analysis) (STING signaling [5]),STING trafficking (confocal analysis) (STING signaling [5]),inflammation in the heart (H&E staining) (TREX1-deficient mice),"survival of TREX1-deficient mice (TREX1-deficient mice; intraperitoneal, 25 μg/mouse, 5 months, compared to mock treated)"
"N#Cc1c(NC(=O)c2c(F)cccc2Cl)n(CCc2ccccc2)c2nc3ccccc3nc12 [Compound Y6, 2-chloro-N-[3-cyano-1-(2-phenylethyl)-1H-pyrrolo [2,3-b]quinoxalin-2-yl]-6-fluorobenzamide]",showed robust inhibitory activity of the type I IFN promoter,found to meet the criteria to inhibit STING dependent signaling; also recorded: found to meet the criteria to inhibit STING dependent signaling and showed the most effective inhibitory activity,robustly inhibited,,,,,,
"N#Cc1c(NC(=O)c2cccc(F)c2Cl)n(CCc2ccccc2)c2nc3ccccc3nc12 [Compound Y5, 2-chloro-N-[3-cyano-1-(2-phenylethyl)-1H-pyrrolo [2,3-b]quinoxalin-2-yl]-3-floorobenzamide]",showed robust inhibitory activity of the type I IFN promoter,found to meet the criteria to inhibit STING dependent signaling; also recorded: found to meet the criteria to inhibit STING dependent signaling and showed the most effective inhibitory activity,robustly inhibited,,,,,,
"Cc1ccc(Cl)c(C(=O)Nc2c(C#N)c3nc4ccccc4nc3n2CCc2ccccc2)c1 [Compound Y4, 2-chloro-N-[3-cyano-1-(2-phenylethyl)-1H-pyrrolo [2,3-b]quinoxalin-2-yl]-5-methylbenzamide]",showed robust inhibitory activity of the type I IFN promoter,found to meet the criteria to inhibit STING dependent signaling; also recorded: found to meet the criteria to inhibit STING dependent signaling and showed the most effective inhibitory activity,robustly inhibited,impede the production of Cxcl10,can prevent the phosphorylation of TBK1 and IRF3 as well as STING phosphorylation,reproducibly prevented STING trafficking and IRF3 phosphorylation,reproducibly prevented STING trafficking and IRF3 phosphorylation,,
"N#Cc1c(NC(=O)c2cccc(Cl)c2Cl)n(CCc2ccccc2)c2nc3ccccc3nc12 [Compound Y8, 2,3-dichloro-N-[3-cyano-1-(2-phenylethyl)-1H-pyrrolo[2,3-b]quinoxalin-2-yl]benzamide]",showed robust inhibitory activity of the type I IFN promoter,found to meet the criteria to inhibit STING dependent signaling; also recorded: found to meet the criteria to inhibit STING dependent signaling and showed the most effective inhibitory activity,robustly inhibited,impede the production of Cxcl10,can prevent the phosphorylation of TBK1 and IRF3 as well as STING phosphorylation,reproducibly prevented STING trafficking and IRF3 phosphorylation,reproducibly prevented STING trafficking and IRF3 phosphorylation,,
"N#Cc1c(NC(=O)c2ccccc2Cl)n(CCOc2ccccc2)c2nc3ccccc3nc12 [Compound Y2, 2-chloro-N-[3-cyano-1-(2-phenoxyethyl)-1H-pyrrolo [2,3-b]quinoxalin-2-yl] benzamide]",,found to meet the criteria to inhibit STING dependent signaling; also recorded: found to meet the criteria to inhibit STING dependent signaling and showed the most effective inhibitory activity,,,,,,,
"Cc1cccc(C(=O)Nc2c(C#N)c3nc4ccccc4nc3n2CCc2ccccc2)c1Cl [Compound Y9, 2-chloro-N-[3-cyano-1-(2-phenylethyl)-1H-pyrrolo [2,3-β]quinoxalin-2-yl]-3-methylbenzamide]",showed robust inhibitory activity of the type I IFN promoter,found to meet the criteria to inhibit STING dependent signaling; also recorded: found to meet the criteria to inhibit STING dependent signaling and showed the most effective inhibitory activity,robustly inhibited,impede the production of Cxcl10,can prevent the phosphorylation of TBK1 and IRF3 as well as STING phosphorylation,reproducibly prevented STING trafficking and IRF3 phosphorylation,reproducibly prevented STING trafficking and IRF3 phosphorylation,Less inflammation in the heart,extend the survival of TREX1-deficient mice
"N#Cc1c(NC(=O)c2ccccc2Cl)n(CCc2cccc(F)c2)c2nc3ccccc3nc12 [Compound Y7, 2-chloro-N-{3-cyano-1-[2-(3-fluorophenyl)ethyl]-1H-pyrrolo[2,3-b]quinoxalin-2-yl}benzamide]",showed robust inhibitory activity of the type I IFN promoter,found to meet the criteria to inhibit STING dependent signaling; also recorded: found to meet the criteria to inhibit STING dependent signaling and showed the most effective inhibitory activity,robustly inhibited,,,,,,
"COCCn1c(NC(=O)c2ccccc2Cl)c(C#N)c2nc3ccccc3nc21 [Compound Y3, 2-chloro-N-[3-cyano-1-(2-methoxyethyl)-1H-pyrrolo [2,3-ß]iquinoxalin-2-yl] benzamide]",,found to meet the criteria to inhibit STING dependent signaling; also recorded: found to meet the criteria to inhibit STING dependent signaling and showed the most effective inhibitory activity,,,,,,,
